Measurements published in patent US11613531B2, “Inhibitors of RHO associated coiled-coil containing protein kinase” (Kadmon Corporation, LLC, priority 2017, dated 2023).

Columns and labels:
[1] = biological target: Recombinant ROCK2 (amino acids 1-552) (Homo sapiens (Human), UniProt O75116); test: Z′-Lyte kinase assay, ROCK2; assay type: biochemical; details: 9 points 2-fold serial dilution
Procedure, shortened: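 IC50s derive from nonlinear curve fits over a 9-point, 2-fold dilution series, with single-point inhibition at 1 μM expressed relative to DMSO. Activity of truncated human ROCK1 (residues 1-535) and ROCK2 (residues 1-552) measured with the Z′-Lyte kinase format.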

[2] = test system: ppMlc (T18/S19) levels in A7R5 cells; test: A7R5 in-cell ELISA (pMLC); assay type: cell-based, Rat; details: Rattus norvegicus, A7R5, A7R5 cells
Procedure, shortened: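 Cellular IC50 came from a nonlinear regression fit of ppMlc (T18/S19) signal, read by colorimetric in-cell ELISA on fixed cells. Rat A7R5 aortic smooth muscle cells had been exposed for 90 min to compounds in 9-point 2-fold serial dilution, 24 h after seeding.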

[3] = test system: Bleomycin induced lung fibrosis in mice; test: Prophylactic bleomycin induced lung fibrosis model; assay type: in vivo; details: 21-day treatment
From the text: FIG. 9a. ROCK inhibitor is active in a mouse model of pulmonary fibrosis. Representative images of lung sections stained with Masson's trichrome to visualized fibrosis in the lungs of mice following 21-day treatment with ROCK inhibitor in the bleomycin-induced lung injury model.
FIG. 9b. […] Ashcroft fibrotic indices, α-smooth muscle actin (αSMA) percentage positive area and total leukocytes count in bronchoalveolar lavage fluid obtained from lungs of mice in the bleomycin lung fibrosis model treated with compound of Example 192.
Prophylactic Efficacy of Compounds in Bleomycin Induced Lung Fibrosis in Mice
Male C57B/L6 mice were ear tagged and weighed prior to the start of the study. Treatment group animals were treated with the compound on day −1 pre-bleomycin and all subsequent days post-bleomycin administration. On day 0, animals in disease groups received 1.5 U/kg dose of bleomycin via oropharyngeal route. […] Animals were closely monitored daily till the end of the study. […] Blood samples were used for plasma preparation; total leukocytes were counted in BAL fluid; and lungs were fixed in 10% neutral buffered formalin for histopathological analysis.
Based on the strong anti-fibrotic cellular activity of ROCK inhibitors of this invention, the ability of such inhibitors to attenuate fibrosis in the in vivo setting was assessed in several mouse models of disease. […]

[4] = test system: Histamine-induced vascular permeability in mice; test: Histamine-induced vascular permeability model; assay type: in vivo; details: single oral dose 1 hr. prior to histamine injection
From the text: FIG. 12a. ROCK inhibition stabilizes the endothelial barrier function in a histamine-induced vascular permeability model in mice. Representative images of Evan's Blue dye extravasation induced by histamine in the skin of ROCK inhibitor and vehicle treated mice, relative to the control compound (salbutamol). ROCK inhibitor induces vascular barrier stabilization following single dose of compound administered 1 hr. prior to histamine injection.
FIG. 12b. Quantitation of the decrease in spot area size and Evan's Blue dye amount in the skin of ROCK inhibitor treated mice following the induction of capillary leakage by histamine injection.
Histamine-Induced Vascular Permeability Model in Mice […]
20 minutes post challenge with histamine, animals were euthanized. The skin was then inverted, the lesion diameters were measured. The area of the lesion was calculated and expressed in square millimeters. Following diameter measurements, Evan's Blue dye was extracted from the skin tissue and the optical density was measured. Data are calculated against a spiked in Evan's Blue standard curve. […]
The extent of compound efficacy was quantitated by calculating both the overall skin spot area and the amount of Evans Blue dye permeating the skin. 20 Minutes post challenge with histamine, animals were euthanized, the lesion diameters were measured. […]

Sequence of Recombinant ROCK2 (amino acids 1-552) (O75116 1-552): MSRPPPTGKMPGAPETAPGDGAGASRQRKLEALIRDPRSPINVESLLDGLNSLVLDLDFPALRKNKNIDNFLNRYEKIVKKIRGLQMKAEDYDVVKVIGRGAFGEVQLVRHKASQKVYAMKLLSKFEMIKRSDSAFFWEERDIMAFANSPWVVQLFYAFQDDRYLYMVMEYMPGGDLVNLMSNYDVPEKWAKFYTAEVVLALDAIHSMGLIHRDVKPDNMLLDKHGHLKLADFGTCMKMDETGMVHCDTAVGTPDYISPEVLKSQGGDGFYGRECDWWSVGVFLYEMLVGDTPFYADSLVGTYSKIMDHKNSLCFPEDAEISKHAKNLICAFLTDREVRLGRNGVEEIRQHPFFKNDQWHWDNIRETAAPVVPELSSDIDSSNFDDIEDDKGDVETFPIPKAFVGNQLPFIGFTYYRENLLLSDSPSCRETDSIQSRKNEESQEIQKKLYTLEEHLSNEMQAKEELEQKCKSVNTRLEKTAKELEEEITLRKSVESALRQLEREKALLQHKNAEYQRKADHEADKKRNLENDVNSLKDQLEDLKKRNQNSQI

Clc1cnc(N2C3CCC2CNC3)nc1Nc1ccc2[nH]ncc2c1 [Example 192, N-(2-(3,8-diazabicyclo[3.2.1]octan-8-yl)-5-chloropyrimidin-4-yl)-1H-indazol-5-amine]
IC50 [1]: 12 nM | inhibition at 1 µM ([2]; 1 μM compound, read-out: pMLC % inh A7R5 @ [conc]): 53.5% | IC50 ([2]; ppMlc (T18/S19)): 98 nM | activity in bleomycin lung fibrosis model (Ashcroft fibrotic indices, αSMA percentage positive area, total leukocytes count in BAL fluid) [3]: positive activity | vascular permeability induced by histamine (Evan's Blue dye extravasation) [4]: blocked
